From US8754226B2, “Piperidinyl-substituted lactams as GPR119 modulators” (Array BioPharma Inc., priority 2010, dated 2014)
Where a name gives a salt, the structure may show the parent alone.

Test system: modified version of the GPR119 receptor (94% identity to human receptor)
Experiment: cAMP production assay (LANCE cAMP kit, TR-FRET) in HEK-293 cells
Type: cell-based
Settings: for cAMP production in HEK-293 cells: HEK-293 cells stably expressing modified GPR119, test compounds 0.2 nM to 10 μM, one-hour incubation at ambient temperature; for Fold over baseline: increase in cAMP relative to basal levels, agonist activity if 1.5-fold or greater
Procedure, shortened: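 Doxycycline-induced (1 μg/mL, overnight) HEK-293 cells expressing modified GPR119 were thawed, 2000 cells/well, and exposed to compounds (0.2 nM-10 μM final, 0.5% DMSO) for 1 h at ambient temperature in HBSS/HEPES/BSA. cAMP was measured by LANCE TR-FRET against a standard curve. Agonism was defined as ≥1.5-fold over basal.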

Structure (SMILES)	cAMP production in HEK-293 cells	Fold over baseline
CS(=O)(=O)c1cc(F)c(N[C@H]2CCCCN(C3CCN(c4cncc(Cl)n4)CC3)C2=O)cc1F.Cl [Example 84, (S)-1-(1-(6-chloropyrazin-2-yl)piperidin-4-yl)-3-(2,5-difluoro-4-(methylsulfonyl)phenylamino)azepan-2-one hydrochloride]	6.3 nmol	1.8
CCc1cnc(N2CCC(N3CCCC[C@H](Nc4ccc(S(C)(=O)=O)cc4F)C3=O)CC2)nc1.Cl [Example 79]	18.0 nmol	3.8
O=C(c1ccc(O[C@H]2CCN(C3CCN(c4ncc(C(F)(F)F)cc4Cl)CC3)C2=O)c(F)c1)N1CCCC1 [Example 151]	35.8 nmol	4.7
CS(=O)(=O)c1ccc(O[C@@H]2C(=O)N(C3CCN(c4cnc(Cl)cn4)CC3)C[C@@H]2O)c(F)c1 [Example 39, (3S,4S)-1-(1-(5-chloropyrazin-2-yl)piperidin-4-yl)-3-(2-fluoro-4-(methylsulfonyl)phenoxy)-4-hydroxypyrrolidin-2-one]	20.6 nmol	3.7
CCc1cnc(N2CCC(N3CC[C@H](Nc4ccc(S(C)(=O)=O)cc4F)C3=O)CC2)nc1 [Example 19, (S)-1-(1-(5-ethylpyrimidin-2-yl)piperidin-4-yl)-3-(2-fluoro-4 (methylsulfonyl)phenylamino) pyrrolidin-2-one]	9.9 nmol	2.1
CS(=O)(=O)c1cc(F)c(N[C@H]2CCN(C3CCN(c4ccc(C(F)(F)F)cn4)CC3)C2=O)c(F)c1 [Example 101, (S)-3-(2,6-difluoro-4-(methylsulfonyl)phenylamino)-1-(1-(5-(trifluoromethyl)pyridin-2-yl)piperidin-4-yl)pyrrolidin-2-one]	6.6 nmol	2.0
CS(=O)(=O)c1cc(F)c(N[C@H]2CCN(C3CCN(c4ncc(C(F)(F)F)cc4Cl)CC3)C2=O)c(F)c1 [Example 108, (S)-1-(1-(3-chloro-5-(trifluoromethyl)pyridin-2-yl)piperidin-4-yl)-3-(2,6-difluoro-4-(methylsulfonyl)phenyl-amino)pyrrolidin-2-one]	15.8 nmol	2.6
CCc1cnc(N2CCC(N3CC[C@H](N(C)c4cc(F)c(S(C)(=O)=O)cc4F)C3=O)CC2)nc1 [Example 37, (S)-3-((2,5-difluoro-4-(methylsulfonyl)phenyl)(methyl)amino)-1-(1-(5-ethylpyrimidin-2-yl)piperidin-4-yl)pyrrolidin-2-one trifluoroacetate]	23.4 nmol	3.4
CS(=O)(=O)c1cc(F)c(N[C@H]2CCCN(C3CCN(c4cnc(Cl)cn4)CC3)C2=O)c(F)c1 [Example 65, (S)-1′-(5-chloropyrazin-2-yl)-3-(2,6-difluoro-4-(methylsulfonyl)phenylamino)-[1,4′-bipiperidin]-2-one]	21.0 nmol	3.4
CS(=O)(=O)c1ccc(N[C@H]2CCN(C3CCN(c4ncc(Br)cn4)CC3)C2=O)c(F)c1 [Example 7, (S)-1-(1-(5-bromopyrimidin-2-yl)piperidin-4-yl)-3-(2-fluoro-4-(methylsulfonyl)phenylamino)pyrrolidin-2-one]	7.7 nmol	2.4
CCc1cnc(N2CCC(N3CCC[C@H](Nc4ncc(C(F)(F)F)cc4Cl)C3=O)CC2)nc1 [Example 76, (S)-3-(3-chloro-5-(trifluoromethyl)pyridin-2-ylamino)-1′-(5-ethylpyrimidin-2-yl)-[1,4′-bipiperidin]-2-one]	5.9 nmol	1.9
Cn1cc(-c2cnc(N3CCC(N4CC[C@H](Nc5ccc(S(C)(=O)=O)cc5F)C4=O)CC3)nc2)cn1 [Example 33, (S)-3-(2-fluoro-4-(methylsulfonyl)phenylamino)-1-(1-(5-(1-methyl-1H-pyrazol-4-yl)pyrimidin-2-yl)piperidin-4-yl)pyrrolidin-2-one]	15.9 nmol	3.3
